What all share (assay): MIC, agar dilution
What all share (format): cell-based

For assay [1], the system named is S. aureus IVES 1983 (meth. resistant). To be noted: S. aureus IVES 1983 (meth. resistant).
The test system of assay [2] is S. aureus Smith (Sensitive). To be noted: S. aureus Smith (Sensitive).
The test system of the next assay is E. coli UBMS 89-1 (tetM). To be noted: E. coli UBMS 89-1 (tetM).
Assay [3] has as its system S. aureus UBMS 90-3 (Sensitive). To be noted: S. aureus UBMS 90-3 (Sensitive).
The subject of the next assay is E. coli ATCC 25922. To be noted: E. coli ATCC 25922.
For assay [4], the system named is S. aureus UBMS 88-4 (Sensitive). To be noted: S. aureus UBMS 88-4 (Sensitive).
Assay [5] deals with E. coli UBMS 89-2 (Sensitive). To be noted: E. coli UBMS 89-2 (Sensitive).
A further assay concerns E. faecalis ATCC 29212. To be noted: E. faecalis ATCC 29212.
For assay [6], the system named is E. coli UBMS 88-2 (Sensitive). To be noted: E. coli UBMS 88-2 (Sensitive).
Assay [7] concerns S. aureus UBMS 88-7 (tetK). To be noted: S. aureus UBMS 88-7 (tetK).
The subject of another assay is E. coli UBMS 88-1 (tetB). To be noted: E. coli UBMS 88-1 (tetB).
For assay [8], the system named is S. aureus UBMS 90-2 (tetM). To be noted: S. aureus UBMS 90-2 (tetM).
Assay [9] concerns S. aureus IVES 2943 (meth. resistant). To be noted: S. aureus IVES 2943 (meth. resistant).
Assay [10] relates to S. haemolyticus AVAH 88-3. To be noted: S. haemolyticus AVAH 88-3.
Assay [11] concerns S. aureus ATCC 29213 (Sensitive). To be noted: S. aureus ATCC 29213 (Sensitive).
Assay [12] relates to S. aureus UBMS 88-5 (tetM). To be noted: S. aureus UBMS 88-5 (tetM).
Assay [13] has as its system S. aureus UBMS 90-1 (tetM). To be noted: S. aureus UBMS 90-1 (tetM).
The next assay concerns E. faecalis 12201. To be noted: E. faecalis 12201.

≈ marks a conversion by molar mass, not a printed value.

By MIC is commonly meant the lowest concentration found to suppress growth. Lower therefore signals a more susceptible organism. With `CN(C)c1cc(NS(=O)(=O)c2ccc([N+](=O)[O-])cc2)c(O)c2c1CC1CC3C(N(C)C)C(O)=C(C(N)=O)C(=O)C3(O)C(O)=C1C2=O` (stereo not shown) [AA, 7-(Dimethylamino)-9-[[(4-nitrophenyl)sulfonyl]amino]-6-demethyl-6-deoxytetracycline], the MIC stood at 8 µg/mL (≈ 12.2 µM) in assay [1]; 0.12 µg/mL (≈ 0.182 µM) in [2]; 4 µg/mL (≈ 6.08 µM) against E. coli UBMS 89-1 (tetM); 0.06 µg/mL (≈ 0.0912 µM) in assay [3]; 4 µg/mL (≈ 6.08 µM) in the assay on E. coli ATCC 25922; 0.12 µg/mL (≈ 0.182 µM) in [4]. The MIC in assay [5] is 16 µg/mL (≈ 24.3 µM); in the assay with E. faecalis ATCC 29212, 0.12 µg/mL (≈ 0.182 µM); in assay [6] it was 8 µg/mL (≈ 12.2 µM); in assay [7], 2 µg/mL (≈ 3.04 µM); against E. coli UBMS 88-1 (tetB), 16 µg/mL (≈ 24.3 µM); in [8], 0.12 µg/mL (≈ 0.182 µM). For the same compound, the MIC in assay [9] stood at 4 µg/mL (≈ 6.08 µM); in assay [10] it was 2 µg/mL (≈ 3.04 µM); in [11] it was 0.12 µg/mL (≈ 0.182 µM); in [12], 0.12 µg/mL (≈ 0.182 µM); in [13], 0.5 µg/mL (≈ 0.76 µM).
For `CN(C)c1cc(N(C)C)c2c(c1O)C(=O)C1=C(O)C3(O)C(=O)C(C(N)=O)=C(O)C(N(C)C)C3CC1C2` (stereo not shown) [C, 7-(Dimethylamino)-9-(dimethylamino)-6-demethyl-6-deoxytetracycline], the MIC in assay [1] worked out at 1 µg/mL (≈ 2 µM); in [2] it was 0.03 µg/mL (≈ 0.0599 µM); against E. coli UBMS 89-1 (tetM), 1 µg/mL (≈ 2 µM); against E. faecalis 12201, 0.5 µg/mL (≈ 0.999 µM); in assay [3], 0.03 µg/mL (≈ 0.0599 µM); against E. coli ATCC 25922, 0.25 µg/mL (≈ 0.499 µM). Further, the MIC in assay [4] is 0.03 µg/mL (≈ 0.0599 µM); in assay [5], 0.5 µg/mL (≈ 0.999 µM); in the assay with E. faecalis ATCC 29212, 0.06 µg/mL (≈ 0.12 µM); in [6], 0.25 µg/mL (≈ 0.499 µM); in [7], 0.25 µg/mL (≈ 0.499 µM); against E. coli UBMS 88-1 (tetB) it was 16 µg/mL (≈ 32 µM). In addition, the MIC was 0.12 µg/mL (≈ 0.24 µM) in [8]; 1 µg/mL (≈ 2 µM) in assay [9]; 0.12 µg/mL (≈ 0.24 µM) in assay [10]; “≦0.015 μg/ml” in [11]; 0.12 µg/mL (≈ 0.24 µM) in [12]; 0.5 µg/mL (≈ 0.999 µM) in [13].
On to `CN(C)C1C(O)=C(C(N)=O)C(=O)C2(O)C(O)=C3C(=O)c4c(O)c(NC=O)cc(I)c4CC3CC12.O=S(=O)(O)O` (stereo not shown) [G, 9-(Formylamino)-7-iodo-6-demethyl-6-deoxytetracycline sulfate], for which the MIC in assay [1] was found to be 32 µg/mL; in [2] it was 0.03 µg/mL; in the assay on E. coli UBMS 89-1 (tetM), 1 µg/mL; in the assay with E. faecalis 12201 it was 16 µg/mL; in assay [3] it was 0.03 µg/mL; against E. coli ATCC 25922 it was 0.5 µg/mL. Besides, the MIC was less than 0.015 µg/mL in assay [4]; 1 µg/mL in assay [5]; 0.25 µg/mL with E. faecalis ATCC 29212; 1 µg/mL in assay [6]; 16 µg/mL in assay [7]; greater than 32 µg/mL in the assay on E. coli UBMS 88-1 (tetB). Further, the minimal inhibitory concentration (MIC) in [8] is 0.5 µg/mL; in assay [9], 32 µg/mL; in assay [10] it was 0.06 µg/mL; in assay [12] it was 1 µg/mL; in [13] it was 4 µg/mL.
As to `CC(=O)Nc1nc(C)c(S(=O)(=O)Nc2cc(N(C)C)c3c(c2O)C(=O)C2=C(O)C4(O)C(=O)C(C(N)=O)=C(O)C(N(C)C)C4CC2C3)s1` (stereo not shown) [GG, 9-[[[(2-Acetylamino)-4-methyl-5-thiazolyl]sulfonyl]amino]-7-(dimethylamino)-6-demethyl-6-deoxytetracycline], the MIC was 32 µg/mL (≈ 46.3 µM) in assay [1]; 2 µg/mL (≈ 2.9 µM) in [2]; 32 µg/mL (≈ 46.3 µM) in the assay with E. coli UBMS 89-1 (tetM); 2 µg/mL (≈ 2.9 µM) in assay [3]; greater than 32 µg/mL in the assay on E. coli ATCC 25922; 4 µg/mL (≈ 5.79 µM) in assay [4]. Further, the MIC in assay [5] was greater than 32 µg/mL; with E. faecalis ATCC 29212, 1 µg/mL (≈ 1.45 µM); in [6], greater than 32 µg/mL; in [7] it was 32 µg/mL (≈ 46.3 µM); against E. coli UBMS 88-1 (tetB) it was greater than 32 µg/mL; in [8], 4 µg/mL (≈ 5.79 µM). Further, the MIC is greater than 32 µg/mL in assay [9], 0.5 µg/mL (≈ 0.724 µM) in assay [11], 16 µg/mL (≈ 23.2 µM) in assay [12] and 32 µg/mL (≈ 46.3 µM) in assay [13].
`CC(=O)Nc1cc(I)c2c(c1O)C(=O)C1=C(O)C3(O)C(=O)C(C(N)=O)=C(O)C(N(C)C)C3CC1C2.O=S(=O)(O)O` (stereo not shown) [H, 9-(Acetylamino)-7-iodo-6-demethyl-6-deoxytetracycline sulfate]: the MIC was 32 µg/mL in assay [1]; 0.12 µg/mL in assay [2]; 128 µg/mL against E. coli UBMS 89-1 (tetM); 2 µg/mL in the assay on E. faecalis 12201; 0.12 µg/mL in assay [3]; 16 µg/mL with E. coli ATCC 25922. Also, the MIC in [4] was 0.25 µg/mL; in [5], 16 µg/mL; in the assay with E. faecalis ATCC 29212, 0.25 µg/mL; in [6], greater than 128 µg/mL; in assay [7] it was 16 µg/mL; in assay [8] it was 0.5 µg/mL. In addition, the MIC in assay [9] amounted to 32 µg/mL; in assay [10], 2 µg/mL; in [11] it was 0.22 µg/mL; in assay [12] it was 1 µg/mL; in assay [13] it was 1 µg/mL.
As to `CN(C)c1cc(NC(=O)C(F)(F)F)c(O)c2c1C[C@H]1C[C@H]3[C@H](N(C)C)C(O)=C(C(N)=O)C(=O)[C@@]3(O)C(O)=C1C2=O.O=S(=O)(O)O` [I, 7-(Dimethylamino)-9-((trifluoroacetyl)amino]-g-demethyl-6-deoxytetracycline sulfate], the MIC in [1] turned out to be 32 µg/mL; in assay [2], 8 µg/mL; against E. coli UBMS 89-1 (tetM), 32 µg/mL; in the assay with E. faecalis 12201 it was 16 µg/mL; in [3], 4 µg/mL; in the assay on E. coli ATCC 25922, 32 µg/mL. In addition, the MIC in assay [4] is 8 µg/mL; in [5], 32 µg/mL; against E. faecalis ATCC 29212 it was 8 µg/mL; in [6], 32 µg/mL; in assay [7], 16 µg/mL; with E. coli UBMS 88-1 (tetB), greater than 32 µg/mL. Besides, the MIC in assay [8] came out at 16 µg/mL; in assay [10], 0.5 µg/mL; in assay [11], 1 µg/mL; in assay [12], 16 µg/mL; in assay [13] it was 16 µg/mL.
Consider `CN(C)c1cc(NC(=O)c2ccccc2F)c(O)c2c1CC1CC3C(N(C)C)C(O)=C(C(N)=O)C(=O)C3(O)C(O)=C1C2=O` (stereo not shown) [S, 7-(Dimethylamino)-9-[(2-fluorobenzoyl)amino]-6-demethyl-6-deoxytetracycline], for which the MIC in assay [1] is 4 µg/mL (≈ 6.73 µM); in assay [2], 1 µg/mL (≈ 1.68 µM); with E. faecalis 12201 it was 4 µg/mL (≈ 6.73 µM); in assay [3] it was 1 µg/mL (≈ 1.68 µM); in the assay on E. coli ATCC 25922, greater than 32 µg/mL; in assay [4], 2 µg/mL (≈ 3.36 µM). Besides, the MIC in assay [5] was greater than 32 µg/mL; in the assay with E. faecalis ATCC 29212, 4 µg/mL (≈ 6.73 µM); in assay [6] it was greater than 32 µg/mL; in [7] it was 8 µg/mL (≈ 13.5 µM); against E. coli UBMS 88-1 (tetB) it was greater than 32 µg/mL; in assay [8], 1 µg/mL (≈ 1.68 µM). Further, the MIC amounted to 8 µg/mL (≈ 13.5 µM) in [9]; 4 µg/mL (≈ 6.73 µM) in assay [10]; 0.5 µg/mL (≈ 0.841 µM) in assay [11]; 2 µg/mL (≈ 3.36 µM) in [12]; 4 µg/mL (≈ 6.73 µM) in assay [13].
`CN(C)c1cc(NC(=O)c2c(F)c(F)c(F)c(F)c2F)c(O)c2c1CC1CC3C(N(C)C)C(O)=C(C(N)=O)C(=O)C3(O)C(O)=C1C2=O` (stereo not shown) [T, 7-(Dimethylamino)-9-((pentafluorobenzoyl)amino]-6-demethyl-6-deoxytetracycline]: the MIC was 4 µg/mL (≈ 6 µM) in assay [1]; 4 µg/mL (≈ 6 µM) in [2]; 4 µg/mL (≈ 6 µM) in the assay on E. faecalis 12201; 2 µg/mL (≈ 3 µM) in assay [3]; greater than 32 µg/mL in the assay with E. coli ATCC 25922; 4 µg/mL (≈ 6 µM) in assay [4]. Further, the MIC in [5] is greater than 32 µg/mL; in the assay on E. faecalis ATCC 29212, 4 µg/mL (≈ 6 µM); in [6], greater than 32 µg/mL; in [7], 4 µg/mL (≈ 6 µM); with E. coli UBMS 88-1 (tetB) it was greater than 32 µg/mL; in assay [8], 2 µg/mL (≈ 3 µM). The MIC was 4 µg/mL (≈ 6 µM) in assay [9]; 4 µg/mL (≈ 6 µM) in [10]; 1 µg/mL (≈ 1.5 µM) in assay [11]; 4 µg/mL (≈ 6 µM) in [12]; 4 µg/mL (≈ 6 µM) in assay [13].
